# Source: ChEMBL document CHEMBL1201862, “PubChem BioAssay data set” (2004)
#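 Five compound concentrations were applied to cells in 96-well plates for 48 hours; endpoints were derived by simple linear interpolation of the resulting dose-response curve. At the GI50, growth is halved.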 Calls of active or inactive are those of the source. No stated cut-off is given here; in the data, active = GI50 up to about 1.1 µM and inactive = higher.
# Assays:
# Experiment in all cases: inhibition of tumour cell growth, NCI panel, 48 h
# SF-295 = system: SF-295
# HL-60 = system: HL-60
# K562 = system: K562
# UACC-257 = system: UACC-257
# EKVX = system: EKVX
# SK-MEL-5 = system: SK-MEL-5
# OVCAR-3 = system: OVCAR-3
# TK-10 = system: TK-10
# OVCAR-5 = system: OVCAR-5
# COLO 205 = system: COLO 205
# SK-MEL-28 = system: SK-MEL-28
# NCI-H226 = system: NCI-H226
# OVCAR-8 = system: OVCAR-8
# HCT-116 = system: HCT-116
# Malme-3M = system: Malme-3M
# HCC 2998 = system: HCC 2998
# SN12C = system: SN12C
# NCI-H460 = system: NCI-H460
# A498 = system: A498
# HCT-15 = system: HCT-15
SMILES,GI50 (SF-295),GI50 (HL-60),GI50 (K562),GI50 (UACC-257),GI50 (EKVX),GI50 (SK-MEL-5),GI50 (OVCAR-3),GI50 (TK-10),GI50 (OVCAR-5),GI50 (COLO 205),GI50 (SK-MEL-28),GI50 (NCI-H226),GI50 (OVCAR-8),GI50 (HCT-116),GI50 (Malme-3M),GI50 (HCC 2998),GI50 (SN12C),GI50 (NCI-H460),GI50 (A498),GI50 (HCT-15)
CC1=CC(C)C(C)N(CC2=NCCN2)c2ccccc21 (stereo not given),67.3 µM (inactive),> 47 µM (inactive),36.9 µM (inactive),19.5 µM (inactive),> 100 µM (inactive),20.1 µM (inactive),56.8 µM (inactive),54.2 µM (inactive),> 57.7 µM (inactive),16.9 µM (inactive),18.7 µM (inactive),68.1 µM (inactive),> 80.9 µM (inactive),40 µM (inactive),21.4 µM (inactive),17.9 µM (inactive),> 100 µM (inactive),60.8 µM (inactive),> 59.8 µM (inactive),> 100 µM
C=CCCN1CCc2c([nH]c3ccccc23)C1C(=O)O (stereo not given),> 100 µM (inactive),93.1 µM (inactive),> 100 µM (inactive),> 100 µM (inactive),> 100 µM (inactive),> 100 µM (inactive),> 100 µM (inactive),> 100 µM (inactive),> 100 µM (inactive),> 100 µM (inactive),> 100 µM (inactive),89.7 µM (inactive),–,> 100 µM (inactive),> 100 µM (inactive),> 100 µM (inactive),> 100 µM (inactive),> 100 µM (inactive),> 100 µM (inactive),–
Cn1c2ccc([N+](=O)[O-])cc2c(=O)n1Cc1ccccc1F,54.1 µM (inactive),64.4 µM (inactive),38.5 µM (inactive),42.4 µM (inactive),41.5 µM (inactive),38.3 µM (inactive),40.8 µM (inactive),34 µM (inactive),46.3 µM (inactive),39.6 µM (inactive),47.5 µM (inactive),29.4 µM (inactive),28.6 µM (inactive),29.1 µM (inactive),46.8 µM (inactive),70.8 µM (inactive),> 100 µM (inactive),40.1 µM (inactive),37.2 µM (inactive),40.5 µM
CN(C)C(=O)NCCN1CCCCCc2ccccc21,> 100 µM (inactive),31.3 µM (inactive),> 100 µM (inactive),76 µM (inactive),> 100 µM (inactive),24.3 µM (inactive),37 µM (inactive),> 100 µM (inactive),> 100 µM (inactive),> 100 µM (inactive),> 100 µM (inactive),49.7 µM (inactive),> 100 µM (inactive),> 100 µM (inactive),> 100 µM (inactive),> 100 µM (inactive),> 100 µM (inactive),> 100 µM (inactive),> 100 µM (inactive),> 100 µM
CC1=C2C3OC(=O)C(C)C3CCC2(C)C=C/C1=N\c1ccccc1 (stereo not given),> 100 µM (inactive),> 100 µM (inactive),> 100 µM (inactive),> 100 µM (inactive),> 100 µM (inactive),> 100 µM (inactive),> 100 µM (inactive),–,> 100 µM (inactive),> 100 µM (inactive),> 100 µM (inactive),> 100 µM (inactive),> 100 µM (inactive),> 100 µM (inactive),> 100 µM (inactive),> 100 µM (inactive),> 100 µM (inactive),> 100 µM (inactive),> 100 µM (inactive),> 100 µM
O=c1nc(NC(c2ccccc2)(c2ccccc2)c2ccccc2)ccn1CCCl,20.6 µM (inactive),22.8 µM (inactive),21.8 µM (inactive),> 10 µM (inactive),26.9 µM (inactive),–,13.2 µM (inactive),27.7 µM (inactive),27.5 µM (inactive),25.6 µM (inactive),15 µM (inactive),21.2 µM (inactive),16.2 µM (inactive),18.8 µM (inactive),14.6 µM (inactive),14.9 µM (inactive),17.9 µM (inactive),19.3 µM (inactive),64.7 µM (inactive),35.4 µM
CCOC(=O)/C=C/n1c2ccccc2c(=O)c2ccccc21,> 100 µM (inactive),> 100 µM (inactive),> 100 µM (inactive),> 100 µM (inactive),> 100 µM (inactive),–,> 100 µM (inactive),> 100 µM (inactive),–,> 100 µM (inactive),> 100 µM (inactive),> 100 µM (inactive),> 100 µM (inactive),> 100 µM (inactive),> 100 µM (inactive),> 100 µM (inactive),> 100 µM (inactive),> 100 µM (inactive),> 100 µM (inactive),> 100 µM
ClCc1ccc2ccc3ccc(CCl)nc3c2n1,2.31 µM (inactive),1.8 µM (inactive),3.18 µM (inactive),1.29 µM (inactive),15.6 µM (inactive),1.4 µM (inactive),1.94 µM (inactive),–,2.85 µM (inactive),1.71 µM (inactive),1.83 µM (inactive),2.28 µM (inactive),3.36 µM (inactive),1.69 µM (inactive),1.92 µM (inactive),4.11 µM (inactive),2.36 µM (inactive),4.62 µM (inactive),10.6 µM (inactive),1.78 µM
CON(C)C(C#N)=C(C#N)C#N,> 10 µM (inactive),> 10 µM (inactive),> 10 µM (inactive),–,> 10 µM (inactive),> 10 µM (inactive),> 10 µM (inactive),> 10 µM (inactive),> 10 µM (inactive),> 10 µM (inactive),> 10 µM (inactive),2.86 µM (inactive),> 10 µM (inactive),> 10 µM (inactive),> 10 µM (inactive),> 10 µM (inactive),> 10 µM (inactive),> 10 µM (inactive),> 10 µM (inactive),> 10 µM
O=C(NCCCl)SCCO,> 100 µM (inactive),> 100 µM (inactive),> 100 µM (inactive),> 100 µM (inactive),> 100 µM (inactive),–,> 100 µM (inactive),> 100 µM (inactive),> 100 µM (inactive),> 100 µM (inactive),> 100 µM (inactive),> 100 µM (inactive),> 100 µM (inactive),> 100 µM (inactive),> 100 µM (inactive),> 100 µM (inactive),> 100 µM (inactive),> 100 µM (inactive),> 100 µM (inactive),> 100 µM
COc1cccc(OCC(=N/NC(=O)c2ccncc2)/N=C/c2ccncc2)c1,> 100 µM (inactive),> 100 µM (inactive),> 100 µM (inactive),> 100 µM (inactive),> 100 µM (inactive),–,> 100 µM (inactive),> 100 µM (inactive),> 100 µM (inactive),> 100 µM (inactive),> 100 µM (inactive),> 100 µM (inactive),> 100 µM (inactive),> 100 µM (inactive),> 100 µM (inactive),> 100 µM (inactive),> 100 µM (inactive),> 100 µM (inactive),> 100 µM (inactive),> 100 µM
